{"source": "patent US9498483B2", "about": "“2,3,5-trisubstituted thiophene compounds and uses thereof” (priority 2010, dated 2016)", "key": {"[1]": {"test_system": "HCV replicon I389luc-ubi-neo/NS3-3′/ET in ET (Huh-lucubineo-ET) cells", "assay": "Replicon assay (Biological Example 2), luciferase readout", "type": "cell-based", "details": "Hepatitis C virus", "how_it_was_run": "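EC50 values come from Hill fits of % inhibition of replicon-driven firefly luciferase, relative to no-compound wells. Compounds were serially diluted (10 points, 3-fold, 0.1 nM–50 μM final, 0.5% DMSO) onto ET replicon cells and read after 48 h.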"}, "[2]": {"target": "T1, HCV polymerase (Hepatitis C virus genotype 1b, UniProt Q9WMX2)", "T1 construct": "(His)6 (C); made in house; host or cells: XL-1 cells (E. coli, by own knowledge)", "assay": "Polymerase assay of Biological Example 1 (IC50 values of Table 3)", "type": "biochemical", "details": "IC50 values of Table 3, polymerase assay of Biological Example 1; read-out: NS5B-enzyme3"}, "[3]": {"details": "ET cells, luciferase activity 48 hours after compound"}}, "data": [{"smiles": "O=C(O)c1sc(-c2ccccc2)cc1N1C(=O)CN(S(=O)(=O)c2cccc(Cl)c2Cl)CC1C1CCCCC1", "note": "(stereo not shown) [Compound 111, 3-[2-Cyclohexyl-4-(2,3-dichloro-benzenesulfonyl)-6-oxo-piperazin-1-yl]-5-phenyl-thiophene-2-carboxylic acid]", "values": [{"measurement": "IC50", "setting": "[1]; [3]", "result": "≥ 5000", "unit": "nM"}, {"measurement": "IC50", "setting": "[2]", "result": 243, "unit": "nM"}]}, {"smiles": "O=C(O)c1sc(-c2ccccc2)cc1N1C(=O)CN(S(=O)(=O)C2CCN(C(=O)OCc3ccccc3)CC2)CC1C1CCCCC1", "note": "(stereo not shown) [Compound 112, 4-[4-(2-Carboxy-5-phenyl-thiophen-3-yl)-3-cyclohexyl-5-oxo-piperazine-1-sulfonyl]-piperidine-1-carboxylic acid benzyl ester]", "values": [{"measurement": "IC50", "setting": "[1]; [3]", "result": "≥ 5000", "unit": "nM"}, {"measurement": "IC50", "setting": "[2]", "result": 173, "unit": "nM"}]}, {"smiles": "CC(C)(C)c1ccc(-c2cc(N3C(=O)CCCC3C3CCCCC3)c(C(=O)O)s2)cc1", "note": "(stereo not shown) [Compound 113, 5-(4-tert-Butyl-phenyl)-3-(2-cyclohexyl-6-oxo-piperidin-1-yl)-thiophene-2-carboxylic acid]", "values": [{"measurement": "IC50", "setting": "[1]; between 100 nM and 5.0 uM", "result": "100 to 5000", "unit": "nM"}, {"measurement": "IC50", "setting": "[2]", "result": 44, "unit": "nM"}]}, {"smiles": "COc1ccc(-c2cc(N3C(=O)CCCC3C3CCCCC3)c(C(=O)O)s2)cc1", "note": "(stereo not shown) [Compound 114, 3-(2-Cyclohexyl-6-oxo-piperidin-1-yl)-5-(4-methoxy-phenyl)-thiophene-2-carboxylic acid]", "values": [{"measurement": "IC50", "setting": "[1]; between 100 nM and 5.0 uM", "result": "100 to 5000", "unit": "nM"}, {"measurement": "IC50", "setting": "[2]", "result": 90, "unit": "nM"}]}, {"smiles": "CC(C)(C)C#Cc1cc(N2C(=O)C(CCCO)(CCCO)OC[C@H]2C2CCCCC2)c(C(=O)O)s1", "note": "[Compound 115, 3-[(R)-5-Cyclohexyl-2,2-bis-(3-hydroxy-propyl)-3-oxo-morpholin-4-yl]-5-(3,3-dimethyl-but-1-ynyl)-thiophene-2-carboxylic acid]", "values": [{"measurement": "IC50", "setting": "[1]; between 100 nM and 5.0 uM", "result": "100 to 5000", "unit": "nM"}, {"measurement": "IC50", "setting": "[2]", "result": 4, "unit": "nM"}]}, {"smiles": "CCOc1ccc(-c2cc(N3C(=O)CCCC3C3CCCCC3)c(C(=O)O)s2)cc1", "note": "(stereo not shown) [Compound 116, 3-(2-Cyclohexyl-6-oxo-piperidin-1-yl)-5-(4-ethoxy-phenyl)-thiophene-2-carboxylic acid]", "values": [{"measurement": "IC50", "setting": "[1]; between 100 nM and 5.0 uM", "result": "100 to 5000", "unit": "nM"}, {"measurement": "IC50", "setting": "[2]", "result": 64, "unit": "nM"}]}, {"smiles": "O=C(O)c1sc(-c2ccc(C(F)(F)F)cc2)cc1N1C(=O)CCCC1C1CCCCC1", "note": "(stereo not shown) [Compound 117, 3-(2-Cyclohexyl-6-oxo-piperidin-1-yl)-5-(4-trifluoromethyl-phenyl)-thiophene-2-carboxylic acid]", "values": [{"measurement": "IC50", "setting": "[1]; [3]", "result": "≥ 5000", "unit": "nM"}, {"measurement": "IC50", "setting": "[2]", "result": 739, "unit": "nM"}]}, {"smiles": "C[C@@H]1CCCN1c1ccc(S(=O)(=O)N2CC(=O)N(c3cc(-c4ccccc4)sc3C(=O)O)C(C3CCCCC3)C2)cn1", "note": "(stereo partly drawn) [Compound 118, 3-{2-Cyclohexyl-4-[6-((R)-2-methyl-pyrrolidin-1-yl)-pyridine-3-sulfonyl]-6-oxo-piperazin-1-yl}-5-phenyl-thiophene-2-carboxylic acid]", "values": [{"measurement": "IC50", "setting": "[1]; [3]", "result": "≤ 100", "unit": "nM"}, {"measurement": "IC50", "setting": "[2]", "result": 2, "unit": "nM"}]}, {"smiles": "C[C@H]1CCCN1c1ccc(S(=O)(=O)N2CC(=O)N(c3cc(-c4ccccc4)sc3C(=O)O)C(C3CCCCC3)C2)cn1", "note": "(stereo partly drawn) [Compound 119, 3-{2-Cyclohexyl-4-[6-((S)-2-methyl-pyrrolidin-1-yl)-pyridine-3-sulfonyl]-6-oxo-piperazin-1-yl}-5-phenyl-thiophene-2-carboxylic acid]", "values": [{"measurement": "IC50", "setting": "[1]; [3]", "result": "≤ 100", "unit": "nM"}, {"measurement": "IC50", "setting": "[2]", "result": 9, "unit": "nM"}]}, {"smiles": "O=C(O)c1sc(-c2ccccc2)cc1N1C(=O)CN(S(=O)(=O)c2ccc(N3CC[C@@H](F)C3)nc2)CC1C1CCCCC1", "note": "(stereo partly drawn) [Compound 120, 3-{2-Cyclohexyl-4-[6-((R)-3-fluoro-pyrrolidin-1-yl)-pyridine-3-sulfonyl]-6-oxo-piperazin-1-yl}-5-phenyl-thiophene-2-carboxylic acid]", "values": [{"measurement": "IC50", "setting": "[1]; [3]", "result": "≤ 100", "unit": "nM"}, {"measurement": "IC50", "setting": "[2]", "result": 6, "unit": "nM"}]}, {"smiles": "O=C(O)c1sc(-c2ccccc2)cc1N1C(=O)CN(S(=O)(=O)c2ccc(N3CC[C@H](F)C3)nc2)CC1C1CCCCC1", "note": "(stereo partly drawn) [Compound 121, 3-{2-Cyclohexyl-4-[6-((S)-3-fluoro-pyrrolidin-1-yl)-pyridine-3-sulfonyl]-6-oxo-piperazin-1-yl}-5-phenyl-thiophene-2-carboxylic acid]", "values": [{"measurement": "IC50", "setting": "[1]; [3]", "result": "≤ 100", "unit": "nM"}, {"measurement": "IC50", "setting": "[2]", "result": 7, "unit": "nM"}]}, {"smiles": "C[C@@H]1C[C@@H](O)CN1c1ccc(S(=O)(=O)N2CC(=O)N(c3cc(-c4ccccc4)sc3C(=O)O)C(C3CCCCC3)C2)cn1", "note": "(stereo partly drawn) [Compound 122, 3-{2-Cyclohexyl-4-[6-((2R,4R)-4-hydroxy-2-methyl-pyrrolidin-1-yl)-pyridine-3-sulfonyl]-6-oxo-piperazin-1-yl}-5-phenyl-thiophene-2-carboxylic acid]", "values": [{"measurement": "IC50", "setting": "[1]; [3]", "result": "≤ 100", "unit": "nM"}, {"measurement": "IC50", "setting": "[2]", "result": 2, "unit": "nM"}]}, {"smiles": "O=C(O)c1sc(-c2ccccc2)cc1N1C(=O)CN(S(=O)(=O)c2ccc(N3CC[C@@H](O)C3)nc2)CC1C1CCCCC1", "note": "(stereo partly drawn) [Compound 123, 3-{2-Cyclohexyl-4-[6-((R)-3-hydroxy-pyrrolidin-1-yl)-pyridine-3-sulfonyl]-6-oxo-piperazin-1-yl}-5-phenyl-thiophene-2-carboxylic acid]", "values": [{"measurement": "IC50", "setting": "[1]; [3]", "result": "≤ 100", "unit": "nM"}, {"measurement": "IC50", "setting": "[2]", "result": 2, "unit": "nM"}]}, {"smiles": "O=C(O)c1sc(-c2ccccc2)cc1N1C(=O)CN(S(=O)(=O)c2ccc(N3CC[C@H](O)C3)nc2)CC1C1CCCCC1", "note": "(stereo partly drawn) [Compound 124, 3-{2-Cyclohexyl-4-[6-((S)-3-hydroxy-pyrrolidin-1-yl)-pyridine-3-sulfonyl]-6-oxo-piperazin-1-yl}-5-phenyl-thiophene-2-carboxylic acid]", "values": [{"measurement": "IC50", "setting": "[1]; between 100 nM and 5.0 uM", "result": "100 to 5000", "unit": "nM"}, {"measurement": "IC50", "setting": "[2]", "result": 4, "unit": "nM"}]}, {"smiles": "O=C(O)c1sc(-c2ccccc2)cc1N1C(=O)CN(S(=O)(=O)c2ccc(N3C4CCC3CC4)nc2)CC1C1CCCCC1", "note": "(stereo not shown) [Compound 125, 3-{4-[6-(7-Aza-bicyclo[2.2.1]hept-7-yl)-pyridine-3-sulfonyl]-2-cyclohexyl-6-oxo-piperazin-1-yl}-5-phenyl-thiophene-2-carboxylic acid]", "values": [{"measurement": "IC50", "setting": "[1]; [3]", "result": "≤ 100", "unit": "nM"}, {"measurement": "IC50", "setting": "[2]", "result": 18, "unit": "nM"}]}, {"smiles": "C[C@@H]1CCC[C@H](C)N1c1ccc(S(=O)(=O)N2CC(=O)N(c3cc(-c4ccccc4)sc3C(=O)O)C(C3CCCCC3)C2)cn1", "note": "(stereo partly drawn) [Compound 126, 3-[2-Cyclohexyl-4-((2S,6R)-2,6-dimethyl-3,4,5,6-tetrahydro-2H-[1,2′]bipyridinyl-5′-sulfonyl)-6-oxo-piperazin-1-yl]-5-phenyl-thiophene-2-carboxylic acid]", "values": [{"measurement": "IC50", "setting": "[1]; [3]", "result": "≤ 100", "unit": "nM"}, {"measurement": "IC50", "setting": "[2]", "result": 11, "unit": "nM"}]}, {"smiles": "C[C@@H]1CCCN1c1ccc(S(=O)(=O)N2CC(=O)N(c3cc(-c4ccccc4)sc3C(=O)O)C(C3CCCCC3)C2)cc1", "note": "(stereo partly drawn) [Compound 127, 3-{2-Cyclohexyl-4-[4-((R)-2-methyl-pyrrolidin-1-yl)-benzenesulfonyl]-6-oxo-piperazin-1-yl}-5-phenyl-thiophene-2-carboxylic acid]", "values": [{"measurement": "IC50", "setting": "[1]; [3]", "result": "≤ 100", "unit": "nM"}, {"measurement": "IC50", "setting": "[2]", "result": 3, "unit": "nM"}]}, {"smiles": "CC1C(=O)N(c2cc(-c3ccccc3)sc2C(=O)O)C(C2CCCCC2)CN1S(=O)(=O)c1ccc(N2CCOCC2)nc1", "note": "(stereo not shown) [Compound 128, 3-[6-Cyclohexyl-3-methyl-4-(6-morpholin-4-yl-pyridine-3-sulfonyl)-2-oxo-piperazin-1-yl]-5-phenyl-thiophene-2-carboxylic acid]", "values": [{"measurement": "IC50", "setting": "[1]; between 100 nM and 5.0 uM", "result": "100 to 5000", "unit": "nM"}, {"measurement": "IC50", "setting": "[2]", "result": 9, "unit": "nM"}]}, {"smiles": "N#Cc1ccc(-c2cc(N3C(=O)CCCC3C3CCCCC3)c(C(=O)O)s2)cc1", "note": "(stereo not shown) [Compound 129, 5-(4-Cyano-phenyl)-3-(2-cyclohexyl-6-oxo-piperidin-1-yl)-thiophene-2-carboxylic acid]", "values": [{"measurement": "IC50", "setting": "[1]; between 100 nM and 5.0 uM", "result": "100 to 5000", "unit": "nM"}, {"measurement": "IC50", "setting": "[2]", "result": 96, "unit": "nM"}]}, {"smiles": "C[C@@H]1CCCN1c1ccc(S(=O)(=O)N2CC(=O)N(c3cc(-c4ccccc4)sc3C(=O)O)[C@H](C3CCCCC3)C2)cn1", "note": "[Compound 130, 3-{(R)-2-Cyclohexyl-4-[6-((R)-2-methyl-pyrrolidin-1-yl)-pyridine-3-sulfonyl]-6-oxo-piperazin-1-yl}-5-phenyl-thiophene-2-carboxylic acid]", "values": [{"measurement": "IC50", "setting": "[1]; [3]", "result": "≤ 100", "unit": "nM"}, {"measurement": "IC50", "setting": "[2]", "result": 1, "unit": "nM"}]}]}
